Test results published in patent US20220125051A1, “PRE-HARVEST DESICCATION METHOD” (SYNGENTA CROP PROTECTION AG, priority 2019, published 2022).

Assays:
Assay in all cases: Post-emergence efficacy, Method A
Assay type in all cases: in vivo
[1] = tested on: Ipomoea hederacea (IPOHE); conditions: Ipomoea hederacea, post-emergence, 312 h, evaluated after 13 days; for pest or weed control at 500 g/ha: Application rate 500 g/Ha, 100=total damage to plant, 0=no damage to plant, read-out: Control of weed species after post-emergence application, IPOHE
Experimental: (§1) Seeds of a variety of test species were sown in standard soil in pots. After cultivation for 14 days (post-emergence) under controlled conditions in a glasshouse (at 24/16° C., day/night; 14 hours light; 65% humidity), the plants were sprayed with an aqueous spray solution derived from the dissolution of the technical active ingredient formula (I) in a small amount of acetone and a special solvent and emulsifier mixture referred to as IF50 (11.12% Emulsogen EL360 TM+44.44% N-methylpyrrolidone+44.44% Dowanol DPM glycol ether), to create a 50 g/I solution which was then diluted to required concentration using 0.25% or 1% Empicol ESC70 (Sodium lauryl ether sulphate)+1% ammonium sulphate as diluent. The test plants were then grown in a glasshouse under controlled conditions (at 24/16° C., day/night; 14 hours light; 65% humidity) and watered twice daily. After 13 days the test was evaluated (100=total damage to plant; 0=no damage to plant).
(§2) Ipomoea hederacea (IPOHE), Euphorbia heterophylla (EPHHL), Chenopodium album (CHEAL), Amaranthus palmeri (AMAPA), Lolium perenne (LOLPE), Digitaria sanguinalis (DIGSA), Eleusine indica (ELEIN), Echinochloa crus-galli (ECHCG), Setaria faberi (SETFA)

[2] = tested on: Euphorbia heterophylla (EPHHL); conditions: Euphorbia heterophylla, post-emergence, 312 h, evaluated after 13 days; for pest or weed control at 500 g/ha: Application rate 500 g/Ha, 100=total damage to plant, 0=no damage to plant, read-out: Control of weed species after post-emergence application, EPHHL
Experimental: as §1, §2

Eleusine indica (ELEIN) = conditions: Eleusine indica, post-emergence, 312 h, evaluated after 13 days; for pest or weed control at 500 g/ha: Application rate 500 g/Ha, 100=total damage to plant, 0=no damage to plant, read-out: Control of weed species after post-emergence application, ELEIN
Experimental: as §1, §2

[3] = tested on: Echinochloa crus-galli (ECHCG); conditions: Echinochloa crus-galli, post-emergence, 312 h, evaluated after 13 days; for pest or weed control at 500 g/ha: Application rate 500 g/Ha, 100=total damage to plant, 0=no damage to plant, read-out: Control of weed species after post-emergence application, ECHCG
Experimental: as §1, §2

[4] = tested on: Digitaria sanguinalis (DIGSA); conditions: Digitaria sanguinalis, post-emergence, 312 h, evaluated after 13 days; for pest or weed control at 500 g/ha: Application rate 500 g/Ha, 100=total damage to plant, 0=no damage to plant, read-out: Control of weed species after post-emergence application, DIGSA
Experimental: as §1, §2

[5] = tested on: Chenopodium album (CHEAL); conditions: Chenopodium album, post-emergence, 312 h, evaluated after 13 days; for pest or weed control at 500 g/ha: Application rate 500 g/Ha, 100=total damage to plant, 0=no damage to plant, read-out: Control of weed species after post-emergence application, CHEAL
Experimental: as §1, §2

Lolium perenne (LOLPE) = conditions: Lolium perenne, post-emergence, 312 h, evaluated after 13 days; for pest or weed control at 500 g/ha: Application rate 500 g/Ha, 100=total damage to plant, 0=no damage to plant, read-out: Control of weed species after post-emergence application, LOLPE
Experimental: as §1, §2

Setaria faberi (SETFA) = conditions: Setaria faberi, post-emergence, 312 h, evaluated after 13 days; for pest or weed control at 500 g/ha: Application rate 500 g/Ha, 100=total damage to plant, 0=no damage to plant, read-out: Control of weed species after post-emergence application, SETFA
Experimental: as §1, §2

[6] = tested on: Amaranthus palmeri (AMAPA); conditions: Amaranthus palmeri, post-emergence, 312 h, evaluated after 13 days; for pest or weed control at 500 g/ha: Application rate 500 g/Ha, 100=total damage to plant, 0=no damage to plant, read-out: Control of weed species after post-emergence application, AMAPA
Experimental: as §1, §2

Compound	pest or weed control at 500 g/ha [1]	pest or weed control at 500 g/ha [2]	pest or weed control at 500 g/ha (Eleusine indica (ELEIN))	pest or weed control at 500 g/ha [3]	pest or weed control at 500 g/ha [4]	pest or weed control at 500 g/ha [5]	pest or weed control at 500 g/ha (Lolium perenne (LOLPE))	pest or weed control at 500 g/ha (Setaria faberi (SETFA))	pest or weed control at 500 g/ha [6]	pest or weed control at 125 g/ha ([1]; Application Rate 125 g/Ha, Method A, read-out: Control of weed species after post-emergence application, IPOHE (100=total damage to plant; 0=no damage to plant))	pest or weed control at 125 g/ha ([2]; Application Rate 125 g/Ha, Method A, read-out: Control of weed species after post-emergence application, EPHHL (100=total damage to plant; 0=no damage to plant))	pest or weed control at 125 g/ha (Eleusine indica (ELEIN); Application Rate 125 g/Ha, Method A, read-out: Control of weed species after post-emergence application, ELEIN (100=total damage to plant; 0=no damage to plant))	pest or weed control at 125 g/ha ([3]; Application Rate 125 g/Ha, Method A, read-out: Control of weed species after post-emergence application, ECHCG (100=total damage to plant; 0=no damage to plant))	pest or weed control at 125 g/ha ([4]; Application Rate 125 g/Ha, Method A, read-out: Control of weed species after post-emergence application, DIGSA (100=total damage to plant; 0=no damage to plant))	pest or weed control at 125 g/ha ([5]; Application Rate 125 g/Ha, Method A, read-out: Control of weed species after post-emergence application, CHEAL (100=total damage to plant; 0=no damage to plant))	pest or weed control at 125 g/ha (Lolium perenne (LOLPE); Application Rate 125 g/Ha, Method A, read-out: Control of weed species after post-emergence application, LOLPE (100=total damage to plant; 0=no damage to plant))	pest or weed control at 125 g/ha (Setaria faberi (SETFA); Application Rate 125 g/Ha, Method A, read-out: Control of weed species after post-emergence application, SETFA (100=total damage to plant; 0=no damage to plant))	pest or weed control at 125 g/ha ([6]; Application Rate 125 g/Ha, Method A, read-out: Control of weed species after post-emergence application, AMAPA (100=total damage to plant; 0=no damage to plant))
Cc1nc(-c2cc[n+](CCS(=O)(=O)[O-])nc2)ncc1Cl [Compound A99]	30%	90%	80%	50%	40%	30%	20%	50%	80%	–	–	–	–	–	–	–	–	–
O=S(=O)([O-])CC[n+]1ccc(-c2ccccn2)cn1 [Compound A64]	20%	100%	100%	60%	80%	90%	80%	90%	90%	–	–	–	–	–	–	–	–	–
COc1ccc(-c2cc[n+](CCCS(=O)(=O)[O-])nc2)nn1 [Compound A115]	40%	30%	30%	50%	30%	100%	30%	60%	100%	–	–	–	–	–	–	–	–	–
O=S(=O)([O-])CCC[n+]1ccc(-c2nccc(CO)n2)cn1 [Compound A154]	–	–	–	–	–	–	–	–	–	20%	70%	10%	20%	20%	50%	10%	30%	40%
COc1cnc(-c2cc[n+](CCC(=O)[O-])nc2)nc1 [Compound A38]	20%	30%	70%	30%	100%	50%	40%	70%	100%	–	–	–	–	–	–	–	–	–
